Literature values as cited in patent US8193152B2 (priority 2004, dated 2012).
Read-outs that look alike come from different tables or passages of the source.

Legend:
PIC = details: guinea pig, in vivo
Machupo = details: rhesus monkey, in vivo
mycobacterial infection = details: mouse, in vivo
mycobacteria = details: human, in vivo
[1] = in vivo
[2] = in vivo; remark: listed apart in the source

Q: With `NC(=O)c1ncn([C@@H]2O[C@H](CO)[C@@H](O)[C@H]2O)n1` [ribavirin, Ribavirin, reference compound] as the molecule, how does the time to death (PIC) read?
A: The time to death was “prolonged”.

Q: With poly (ICLC) as the molecule, how does the “Overall mortality and time to death” value (Machupo) read?
A: Its value is “not improved”.

Q: And the viremia (Machupo)?
A: Its viremia is “significantly higher”.

Q: Which mortality (PIC) does the source give for IFNα here?
A: Its mortality is “No significant improvement in mortality”.

Q: What does the source list for `N[C@H](CCC(=O)N[C@@H](Cc1c[nH]c2ccccc12)C(=O)O)C(=O)O` [SCV-07, γ-D-glutamyl-L-tryptophan]?
A: Con-A-induced interleukin-2 (IL-2) production (spleen lymphocytes): increases; IL-2 receptor expression (spleen lymphocytes): increases; IFNγ production by Con-A-induced spleen cells (mycobacterial infection): higher; IL-4 production by Con-A-induced spleen cells (mycobacterial infection): lower; Phagocytic activity by peritoneal macrophages (mycobacterial infection): markedly increased; lung damage (mycobacterial infection): significantly decrease; cavity healing and symptoms of tuberculosis (mycobacteria): positive effect; drug-induced adverse effects (mycobacteria): without any drug-induced adverse effects; incidence of mycobacteria-negative sputum cultures (mycobacteria): increased; immunostimulatory effect [1]: strong immunostimulatory effect; Con-A-induced thymocyte and lymphocyte proliferation (thymocyte and lymphocyte): increases; immunostimulatory effect [2]: strong immunostimulatory effect; expression of Thy-1.2 (bone marrow cells): stimulates expression
